Assay results as given in article PMC4022148 (Molecular and biochemical parasitology, 2014).

Biological target: T1, E. histolytica LMW-PTP (Entamoeba histolytica, UniProt C4LSE7)
T1 sequence (C4LSE7 1-157): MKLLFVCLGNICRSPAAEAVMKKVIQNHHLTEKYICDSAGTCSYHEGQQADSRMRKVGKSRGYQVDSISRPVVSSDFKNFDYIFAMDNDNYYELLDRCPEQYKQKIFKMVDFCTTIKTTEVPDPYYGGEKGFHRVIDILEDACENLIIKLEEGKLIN
Assay: colorimetric phosphatase assay, A405
Assay type: biochemical
Details: kit assay buffer, 10-200 ng enzyme, 100 ul

## O=[N+]([O-])c1ccc(OP(=O)(O)O)cc1 [pNPP]
  colorimetric phosphatase assay, A405 (SensoLyte pNPP kit): The wild-type recombinant LMW-PTP possessed phosphatase activity
